These results are taken from ChEMBL document CHEMBL5465560, “Selectivity Literature for EUbOPEN Chemogenomic Library” (2024).

Experiment [1] deals with Non-receptor tyrosine-protein kinase TYK2 (Homo sapiens, UniProt P29597). Nature of the experiment: Selectivity interaction (Kinase panel (Carna Biosciences)) EUB0001542aTs TYK2. The note with it: at 1 µM.
The target in experiment [2] is Protein arginine N-methyltransferase 8 (Homo sapiens, UniProt Q9NR22). Nature of the experiment: Selectivity interaction (Methyltransferase screen (radiometric assays, panel of 8 PRMTs, 21 protein lysine methyltransferases, 3 DNA methyltransferases, and one RNA methyltransferase)) EUB0000271b PRMT8.
The target in experiment [3] is T1, Phosphatidylinositol 5-phosphate 4-kinase type-2 beta (Homo sapiens) (UniProt P78356).
T1 sequence (whole entry): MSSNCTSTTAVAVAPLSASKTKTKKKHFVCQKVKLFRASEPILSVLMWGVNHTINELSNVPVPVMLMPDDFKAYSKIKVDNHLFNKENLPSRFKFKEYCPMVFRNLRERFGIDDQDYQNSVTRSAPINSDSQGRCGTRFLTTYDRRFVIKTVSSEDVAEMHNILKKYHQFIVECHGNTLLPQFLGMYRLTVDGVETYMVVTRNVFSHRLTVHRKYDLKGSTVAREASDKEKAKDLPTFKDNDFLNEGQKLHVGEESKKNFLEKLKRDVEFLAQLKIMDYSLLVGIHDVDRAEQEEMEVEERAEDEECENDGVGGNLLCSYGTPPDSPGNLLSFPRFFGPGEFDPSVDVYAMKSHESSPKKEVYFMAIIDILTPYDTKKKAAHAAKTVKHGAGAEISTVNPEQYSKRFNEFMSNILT
Nature of the experiment: Selectivity interaction (KinomeScan (DiscoverX)) EUB0000607a PIP4K2B. The following applies: at 10 µM.

Experiment [4] concerns the target T2, Tyrosine-protein kinase receptor TYRO3 (Homo sapiens) (UniProt Q06418).
T2 sequence (whole entry): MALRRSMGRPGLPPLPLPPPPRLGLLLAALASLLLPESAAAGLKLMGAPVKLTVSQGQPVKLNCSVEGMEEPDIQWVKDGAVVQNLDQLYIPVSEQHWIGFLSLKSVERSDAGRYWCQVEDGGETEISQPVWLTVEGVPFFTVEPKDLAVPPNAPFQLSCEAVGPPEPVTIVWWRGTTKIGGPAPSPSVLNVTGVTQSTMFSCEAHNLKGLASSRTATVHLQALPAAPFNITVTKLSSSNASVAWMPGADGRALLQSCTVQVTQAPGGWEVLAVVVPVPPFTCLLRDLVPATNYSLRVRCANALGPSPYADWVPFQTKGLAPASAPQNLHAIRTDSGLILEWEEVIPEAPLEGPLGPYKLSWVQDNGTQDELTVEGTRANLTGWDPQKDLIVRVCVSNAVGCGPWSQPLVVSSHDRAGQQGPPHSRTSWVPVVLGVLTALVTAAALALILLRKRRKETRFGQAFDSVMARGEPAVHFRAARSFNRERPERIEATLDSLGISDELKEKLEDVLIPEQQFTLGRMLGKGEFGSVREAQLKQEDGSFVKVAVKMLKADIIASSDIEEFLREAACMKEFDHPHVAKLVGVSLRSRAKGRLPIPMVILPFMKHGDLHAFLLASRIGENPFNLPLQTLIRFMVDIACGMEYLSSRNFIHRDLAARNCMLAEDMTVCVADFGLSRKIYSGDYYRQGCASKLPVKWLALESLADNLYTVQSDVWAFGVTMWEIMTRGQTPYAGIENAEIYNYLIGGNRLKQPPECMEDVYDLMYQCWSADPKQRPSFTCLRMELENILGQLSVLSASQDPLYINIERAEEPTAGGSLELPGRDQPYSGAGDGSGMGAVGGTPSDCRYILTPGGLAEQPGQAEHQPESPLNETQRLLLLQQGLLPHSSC
Nature of the experiment: Selectivity interaction (Kinase screening (Nanosyn)) EUB0000604a TYRO3.

The target in experiment [5] is T3, Interleukin-1 receptor-associated kinase 3 (Homo sapiens) (UniProt Q9Y616).
T3 sequence (whole entry): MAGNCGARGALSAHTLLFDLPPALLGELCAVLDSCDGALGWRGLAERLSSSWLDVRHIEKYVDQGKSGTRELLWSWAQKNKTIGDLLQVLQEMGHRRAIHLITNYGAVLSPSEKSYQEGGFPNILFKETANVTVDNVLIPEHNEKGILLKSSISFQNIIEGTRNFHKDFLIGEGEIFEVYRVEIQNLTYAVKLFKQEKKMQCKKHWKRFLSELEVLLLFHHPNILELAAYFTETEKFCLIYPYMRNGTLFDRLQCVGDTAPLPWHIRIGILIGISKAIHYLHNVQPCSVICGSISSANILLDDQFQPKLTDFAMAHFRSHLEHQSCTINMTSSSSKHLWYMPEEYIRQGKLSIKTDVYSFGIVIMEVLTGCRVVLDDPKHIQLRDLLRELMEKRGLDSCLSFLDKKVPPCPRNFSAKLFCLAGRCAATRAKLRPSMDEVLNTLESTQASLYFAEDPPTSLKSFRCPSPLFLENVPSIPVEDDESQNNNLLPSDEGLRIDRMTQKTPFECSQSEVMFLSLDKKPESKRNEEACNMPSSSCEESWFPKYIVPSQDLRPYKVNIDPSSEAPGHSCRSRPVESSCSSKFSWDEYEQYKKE
The experiment is described as follows: Selectivity interaction (KinomeScan (DiscoverX)) EUB0001049a IRAK3. The following applies: at 1 µM.

Experiment [6] concerns the target Sodium-dependent noradrenaline transporter (Homo sapiens, UniProt P23975). Nature of the experiment: Selectivity interaction (Panel of kinases, GPCRs, ion channels and transporters (enzymatic assay)) EUB0000223bCl SLC6A2.

Sequence of Protein arginine N-methyltransferase 8 (Q9NR22 2-394 limits assumed): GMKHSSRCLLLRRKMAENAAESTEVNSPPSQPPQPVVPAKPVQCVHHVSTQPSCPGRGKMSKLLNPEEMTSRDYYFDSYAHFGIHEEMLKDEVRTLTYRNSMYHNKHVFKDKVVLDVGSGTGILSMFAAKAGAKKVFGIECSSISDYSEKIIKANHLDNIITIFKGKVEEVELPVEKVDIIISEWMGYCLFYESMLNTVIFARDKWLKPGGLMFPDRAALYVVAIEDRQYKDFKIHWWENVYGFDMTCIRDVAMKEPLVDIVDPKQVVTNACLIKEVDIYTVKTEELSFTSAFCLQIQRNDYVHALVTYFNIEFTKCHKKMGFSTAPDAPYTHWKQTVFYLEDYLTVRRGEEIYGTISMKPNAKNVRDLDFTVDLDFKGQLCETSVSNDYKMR
Sequence of Non-receptor tyrosine-protein kinase TYK2 (P29597 whole entry): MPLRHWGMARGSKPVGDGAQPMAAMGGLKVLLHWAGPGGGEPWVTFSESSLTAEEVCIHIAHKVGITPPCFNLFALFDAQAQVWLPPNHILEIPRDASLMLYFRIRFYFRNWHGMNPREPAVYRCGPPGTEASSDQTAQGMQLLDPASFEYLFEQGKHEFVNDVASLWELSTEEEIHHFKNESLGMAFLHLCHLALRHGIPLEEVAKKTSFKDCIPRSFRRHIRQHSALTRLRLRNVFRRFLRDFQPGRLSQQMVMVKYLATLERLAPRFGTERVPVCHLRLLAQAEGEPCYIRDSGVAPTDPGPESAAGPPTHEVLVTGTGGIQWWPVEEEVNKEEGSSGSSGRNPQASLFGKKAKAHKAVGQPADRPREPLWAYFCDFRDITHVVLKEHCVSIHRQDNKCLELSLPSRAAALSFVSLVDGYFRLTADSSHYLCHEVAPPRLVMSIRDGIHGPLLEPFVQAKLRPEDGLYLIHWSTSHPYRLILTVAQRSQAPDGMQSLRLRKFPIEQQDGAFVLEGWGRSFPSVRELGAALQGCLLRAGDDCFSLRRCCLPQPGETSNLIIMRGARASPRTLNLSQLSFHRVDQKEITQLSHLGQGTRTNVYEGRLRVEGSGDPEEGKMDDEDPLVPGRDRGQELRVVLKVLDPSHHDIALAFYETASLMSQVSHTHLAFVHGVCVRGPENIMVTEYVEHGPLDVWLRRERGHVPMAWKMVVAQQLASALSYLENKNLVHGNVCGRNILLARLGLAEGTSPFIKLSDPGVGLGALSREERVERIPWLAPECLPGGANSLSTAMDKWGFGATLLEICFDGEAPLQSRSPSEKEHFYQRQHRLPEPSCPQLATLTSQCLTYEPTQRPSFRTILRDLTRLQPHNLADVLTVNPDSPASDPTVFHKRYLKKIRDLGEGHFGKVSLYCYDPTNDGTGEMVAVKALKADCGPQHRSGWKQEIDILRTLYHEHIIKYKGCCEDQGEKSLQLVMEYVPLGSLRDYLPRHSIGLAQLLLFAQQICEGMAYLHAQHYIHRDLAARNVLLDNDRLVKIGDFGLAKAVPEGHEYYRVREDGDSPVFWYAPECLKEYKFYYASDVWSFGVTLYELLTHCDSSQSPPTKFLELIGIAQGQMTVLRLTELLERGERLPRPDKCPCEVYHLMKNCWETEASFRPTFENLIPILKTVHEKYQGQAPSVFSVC
Sequence of Sodium-dependent noradrenaline transporter (P23975 whole entry): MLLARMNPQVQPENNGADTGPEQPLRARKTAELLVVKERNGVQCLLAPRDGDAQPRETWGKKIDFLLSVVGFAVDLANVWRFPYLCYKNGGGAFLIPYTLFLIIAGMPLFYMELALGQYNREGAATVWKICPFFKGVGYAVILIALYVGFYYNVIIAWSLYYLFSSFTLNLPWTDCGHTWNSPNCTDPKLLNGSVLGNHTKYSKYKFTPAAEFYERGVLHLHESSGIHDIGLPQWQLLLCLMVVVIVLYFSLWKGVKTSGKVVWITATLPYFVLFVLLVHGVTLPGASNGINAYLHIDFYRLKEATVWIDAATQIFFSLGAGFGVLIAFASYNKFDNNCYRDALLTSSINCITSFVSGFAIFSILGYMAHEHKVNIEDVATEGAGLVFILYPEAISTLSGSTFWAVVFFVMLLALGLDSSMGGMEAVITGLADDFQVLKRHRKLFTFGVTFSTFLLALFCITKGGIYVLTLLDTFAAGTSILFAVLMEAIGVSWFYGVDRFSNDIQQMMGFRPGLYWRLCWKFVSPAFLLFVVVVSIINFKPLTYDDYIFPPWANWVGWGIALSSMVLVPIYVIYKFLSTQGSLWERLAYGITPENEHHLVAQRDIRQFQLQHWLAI

As to `Cn1cc(Nc2nccc(N3CC4CCC(C3)N4C(=O)[C@@H]3CC3(F)F)n2)cn1`, in experiment [1], the % of inhibition amounted to 101%. Regarding `Cc1cc(C)cc([C@@H]2c3cc(C)ccc3NC(=O)CN2C(=O)c2ccc(Br)s2)c1`, the % of activity was 101% in experiment [2] (at 1 µM) and 96% in experiment [2] (at 10 µM). `CNC(=O)Nc1ccc(-c2nc(N3CC4CCC(C3)O4)c3cnn(C4CCC5(CC4)OCCO5)c3n2)cc1` came in with a % of control in experiment [3] of 100%. As for `Cc1cnc(Nc2ccc(F)cc2Cl)nc1-c1c[nH]c(C(=O)N[C@H](CO)c2cccc(Cl)c2)c1`, the % of inhibition in experiment [4] amounted to 0%. For the compound `COc1cc(Nc2nc(C)cc(-c3cnn4nc(OC)ccc34)n2)cc(C(F)(F)F)c1`, the % of control in experiment [5] was found to be 89%. The compound `COc1cc(C(=O)N2CC[C@@H](O)[C@@H](N)C2)cc2nc(-c3cc4ccccc4n3CC3CC3)n(C)c12` gave a pXC50 in experiment [6] of 4.7 M.
